We go through 24 compounds from patent US9464084B2, “P2X7 modulators” (Janssen Pharmaceutica NV, priority 2013, dated 2016).

Common to all, as to assay type: cell-based
Assay [1] has as its target T1, P2X7 (Homo sapiens (Human), UniProt Q99572). Description: Ca2+ flux (FLIPR) in 1321N1 cells expressing recombinant human P2X7 channel.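 Further: Calcium-4 dye-loaded cells exposed to compound for 30 min before agonist addition, fluorescence change read 180 s after agonist.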 As to conditions: 250 μM BzATP. On the technique in general: Calcium assays in cells follow changes in intracellular calcium, usually with a dye or a luminescent sensor.
In assay [2] the target is T1, P2X7. Put plainly: P2X7 antagonism in human PBMCs (LPS + Bz-ATP induced IL-1β release, ELISA).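 On all read-outs here: PBMCs from donor human blood, with a further 1.5 h incubation of the cells in the assay.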 As to conditions: LPS 30 ng/ml, Bz-ATP 0.5 mM; for PBMC 10 μM (% control): compound 10 μM; for PBMC 1 μM (% control): compound 1 μM.
In a further assay the target is rat P2X7 (Rattus norvegicus (Rat), UniProt Q64663). Description: Ca2+ flux (FLIPR) in 1321N1 cells expressing recombinant rat P2X7 channel.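 Further: Calcium-4 dye fluorescence change read 180 s after agonist addition, following 30 min cell preincubation with test compound.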 As to conditions: 250 μM BzATP.
Chain of rat P2X7 (Q64663 whole entry): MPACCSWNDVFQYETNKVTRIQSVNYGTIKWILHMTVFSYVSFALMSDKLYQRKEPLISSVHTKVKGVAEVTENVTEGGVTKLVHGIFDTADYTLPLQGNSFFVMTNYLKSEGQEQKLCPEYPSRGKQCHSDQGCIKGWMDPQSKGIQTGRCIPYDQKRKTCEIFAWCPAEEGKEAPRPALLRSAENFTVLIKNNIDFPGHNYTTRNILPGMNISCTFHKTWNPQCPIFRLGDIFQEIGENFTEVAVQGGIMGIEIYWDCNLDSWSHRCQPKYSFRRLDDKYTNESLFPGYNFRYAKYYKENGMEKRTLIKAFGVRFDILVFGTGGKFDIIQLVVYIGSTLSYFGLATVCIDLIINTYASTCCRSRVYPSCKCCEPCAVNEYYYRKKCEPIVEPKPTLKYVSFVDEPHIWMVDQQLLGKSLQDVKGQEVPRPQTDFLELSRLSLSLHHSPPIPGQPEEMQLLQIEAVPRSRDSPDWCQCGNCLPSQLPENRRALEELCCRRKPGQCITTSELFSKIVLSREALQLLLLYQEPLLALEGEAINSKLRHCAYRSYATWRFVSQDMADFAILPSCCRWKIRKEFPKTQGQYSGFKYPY

T1 sequence (Q99572 whole entry): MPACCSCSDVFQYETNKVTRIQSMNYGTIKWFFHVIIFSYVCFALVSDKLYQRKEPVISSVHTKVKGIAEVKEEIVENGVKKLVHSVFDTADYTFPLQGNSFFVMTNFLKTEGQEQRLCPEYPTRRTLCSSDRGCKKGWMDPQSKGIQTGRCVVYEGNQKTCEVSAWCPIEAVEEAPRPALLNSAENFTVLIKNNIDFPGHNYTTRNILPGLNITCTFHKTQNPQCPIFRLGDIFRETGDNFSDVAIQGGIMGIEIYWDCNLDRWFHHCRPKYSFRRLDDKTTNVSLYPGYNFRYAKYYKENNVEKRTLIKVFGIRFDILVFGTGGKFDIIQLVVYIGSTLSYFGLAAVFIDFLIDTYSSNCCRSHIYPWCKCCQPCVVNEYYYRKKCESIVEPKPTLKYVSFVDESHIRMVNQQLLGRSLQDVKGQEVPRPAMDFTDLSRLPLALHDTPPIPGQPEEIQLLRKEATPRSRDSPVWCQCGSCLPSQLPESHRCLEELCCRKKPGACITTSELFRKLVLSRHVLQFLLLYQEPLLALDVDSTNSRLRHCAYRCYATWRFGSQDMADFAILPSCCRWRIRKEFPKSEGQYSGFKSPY

For orientation: IC50 means the point on the concentration scale where inhibition reaches its midpoint. For the compound `C[C@@H]1c2nnn(-c3ccccn3)c2CCN1C(=O)c1ccc(F)c(Cl)c1Cl` (single isomer, unassigned) [Example 141, (R*)-(2,3-Dichloro-4-fluorophenyl)(4-methyl-1-(pyridin-2-yl)-6,7-dihydro-1H-[1,2,3]triazolo[4,5-c]pyridin-5(4H)-yl)methanone], the half-maximal inhibitory concentration (IC50) at P2X7 [1] was found to be 9590 nM. For the same compound, on P2X7 [2], the “PBMC 10 μM (% control)” value amounted to 40.5 % control.

Regarding `C[C@@H]1c2nnn(-c3cccc(F)n3)c2CCN1C(=O)c1cccc(C(F)(F)F)c1Cl` (single isomer, unassigned) [Example 146, (R*)-(2-chloro-3-(trifluoromethyl)phenyl)(1-(6-fluoropyridin-2-yl)-4-methyl-6,7-dihydro-1H-[1,2,3]triazolo[4,5-c]pyridin-5(4H)-yl)methanone], the IC50 is more than 10000 nM at rat P2X7 and 2700 nM on P2X7 [1]. For the same compound, the “PBMC 10 μM (% control)” value on P2X7 [2] is listed as 30.9 % control.

For the compound `C[C@@H]1Cc2c(nnn2-c2ncccn2)CN1C(=O)c1cccc(C(F)(F)F)c1Cl` (single isomer, unassigned) [Example 221, (6R*)-5-{[2-Chloro-3-(trifluoromethyl)phenyl]carbonyl}-6-methyl-1-pyrimidin-2-yl-4,5,6,7-tetrahydro-1H-[1,2,3]triazolo[4,5-c]pyridine], the values for the IC50 at rat P2X7 and on P2X7 [1] were 6680 nM and 506 nM, respectively. The “PBMC 10 μM (% control)” value on P2X7 [2] is 17.8 % control.

With `CC1C=CN=C(n2nnc3c2CCN(C(=O)c2cccc(C(F)(F)F)c2Cl)[C@@H]3C)N1` (single isomer, unassigned) [Example 234, (4R*)-(2-Chloro-3-(trifluoromethyl)phenyl)((4R)-4-methyl-1-(6-methyl-1,6-dihydropyrimidin-2-yl)-6,7-dihydro-1H-[1,2,3]triazolo[4,5-c]pyridin-5(4H)-yl)methanone], the figures for the 50% inhibitory concentration (IC50) on rat P2X7 and at P2X7 [1] were 2000 nM and 200 nM, respectively. Besides, at P2X7 [2], the “PBMC 10 μM (% control)” value is reported as −40.9 % control.

Regarding `C[C@@H]1c2nnn(-c3cncnc3)c2CCN1C(=O)c1cccc(C(F)(F)F)c1Cl` (single isomer, unassigned) [Example 334, (R*)-(2-chloro-3-(trifluoromethyl)phenyl)(4-methyl-1-(pyrimidin-5-yl)-6,7-dihydro-1H-[1,2,3]triazolo[4,5-c]pyridin-5(4H)-yl)methanone], the half-maximal inhibitory concentration (IC50) at rat P2X7 and at P2X7 [1] was more than 10000 nM throughout. Further, at P2X7 [2], the “PBMC 10 μM (% control)” value is listed as 101.8 % control.

Turning to `CC(C)C1c2ncn(-c3cnccn3)c2CCN1C(=O)c1cccc(C(F)(F)F)c1Cl` (stereo not shown) [Example 16, (2-Chloro-3-(trifluoromethyl)phenyl)(4-isopropyl-1-(pyrazin-2-yl)-6,7-dihydro-1H-imidazo[4,5-c]pyridin-5(4H)-yl)methanone], the half-inhibitory concentration (IC50) on rat P2X7 worked out at 456 nM; on P2X7 [1] it was 104 nM. Moreover, the “PBMC 1 μM (% control)” value at P2X7 [2] turned out to be 8.5 % control.

`CCOC(=O)C1c2ncn(-c3cnccn3)c2CCN1C(=O)c1cccc(C(F)(F)F)c1Cl` (stereo not shown) [Example 28, Ethyl 5-{[2-chloro-3-(trifluoromethyl)phenyl]carbonyl}-1-pyrazin-2-yl-4,5,6,7-tetrahydro-1H-imidazo[4,5-c]pyridine-4-carboxylate]: the 50% inhibitory concentration (IC50) was determined as 16.5 nM at rat P2X7 and 13.8 nM at P2X7 [1]. Moreover, the “PBMC 1 μM (% control)” value on P2X7 [2] is reported as 4.8 % control.

Consider `O=C(OCC1c2ncn(-c3ccccc3)c2CCN1C(=O)c1cccc(C(F)(F)F)c1Cl)c1cccc(C(F)(F)F)c1Cl` (stereo not shown) [Example 36, (5-{[2-Chloro-3-(trifluoromethyl)phenyl]carbonyl}-1-phenyl-4,5,6,7-tetrahydro-1H-imidazo[4,5-c]pyridin-4-yl)methyl 2-chloro-3-(trifluoromethyl)benzoate], for which the IC50 on P2X7 [1] stood at 3080 nM. The “PBMC 1 μM (% control)” value on P2X7 [2] was determined as 16.6 % control.

On to `Cc1nc2c(n1-c1ccccc1)CCN(C(=O)c1cccc(C(F)(F)F)c1Cl)C2` [Example 37, (2-Chloro-3-(trifluoromethyl)phenyl)(2-methyl-1-phenyl-6,7-dihydro-1H-imidazo[4,5-c]pyridin-5(4H)-yl)methanone], for which the IC50 was determined as 1530 nM at rat P2X7 and 99.3 nM at P2X7 [1]. Besides, the “PBMC 10 μM (% control)” value on P2X7 [2] is −9.1 % control.

As to `O=C(c1cccc(C(F)(F)F)c1Cl)N1CCc2c(nc(C(F)(F)F)n2-c2ccccc2)C1` [Example 38, (2-Chloro-3-(trifluoromethyl)phenyl)(1-phenyl-2-(trifluoromethyl)-6,7-dihydro-1H-imidazo[4,5-c]pyridin-5(4H)-yl)methanone], the half-maximal inhibitory concentration (IC50) at P2X7 [1] worked out at 14.3 nM. In addition, the “PBMC 10 μM (% control)” value on P2X7 [2] is −0.3 % control.

On to `CC1c2ncn(-c3cnccn3)c2C=CN1C(=O)c1cccc(C(F)(F)F)c1Cl` (stereo not shown) [Example 56, 5-{[2-Chloro-3-(trifluoromethyl)phenyl]carbonyl}-4-methyl-1-pyrazin-2-yl-4,5-dihydro-1H-imidazo[4,5-c]pyridine], for which the IC50 on rat P2X7 came out at 398 nM; at P2X7 [1], 25.1 nM. The “PBMC 1 μM (% control)” value at P2X7 [2] is 10.1 % control.

For the compound `CC1c2nnn(-c3ccc(F)cn3)c2CCN1C(=O)c1cccc(C(F)(F)F)c1Cl` (stereo not shown) [Example 71, 5-{[2-Chloro-3-(trifluoromethyl)phenyl]carbonyl}-1-(5-fluoropyridin-2-yl)-4-methyl-4,5,6,7-tetrahydro-1H-[1,2,3]triazolo[4,5-c]pyridine], the half-inhibitory concentration (IC50) on rat P2X7 is 397 nM; on P2X7 [1], 49 nM. Further, on P2X7 [2], the “PBMC 10 μM (% control)” value worked out at 11.1 % control.

Regarding `Cn1nc(-c2ccc(F)cc2)c2c1CN(C(=O)c1cccc(C(F)(F)F)c1Cl)CC2` [Example 106, 6-{[2-Chloro-3-(trifluoromethyl)phenyl]carbonyl}-3-(4-fluorophenyl)-1-methyl-4,5,6,7-tetrahydro-1H-pyrazolo[3,4-c]pyridine], the IC50 on rat P2X7 was 1580 nM; on P2X7 [1], 158 nM. At P2X7 [2], the “PBMC 1 μM (% control)” value came to 64.4 % control.

Regarding `Cn1nc(-c2ccc(F)cc2)c2c1CN(C(=O)c1cccc(Cl)c1Cl)CC2` [Example 109, 6-[(2,3-Dichlorophenyl)carbonyl]-3-(4-fluorophenyl)-1-methyl-4,5,6,7-tetrahydro-1H-pyrazolo[3,4-c]pyridine], the IC50 on P2X7 [1] stood at 251 nM. Also, at P2X7 [2], the “PBMC 1 μM (% control)” value is 94.1 % control.

As for `O=C(c1cccc(Cl)c1Cl)N1CCc2c(-c3ccc(F)cc3)n[nH]c2C1` [Example 114, 6-[(2,3-Dichlorophenyl)carbonyl]-3-(4-fluorophenyl)-4,5,6,7-tetrahydro-2H-pyrazolo[3,4-c]pyridine], the IC50 on rat P2X7 was determined as 1260 nM; at P2X7 [1] it was 63.1 nM. In addition, on P2X7 [2], the “PBMC 1 μM (% control)” value worked out at 20.4 % control.

As for `O=C(c1ccc(F)cc1Cl)N1CCc2c(nnn2-c2ccccn2)C1` [Example 117, (2-Chloro-4-fluorophenyl)(1-(pyridin-2-yl)-6,7-dihydro-1H-[1,2,3]triazolo[4,5-c]pyridin-5(4H)-yl)methanone], the half-inhibitory concentration (IC50) is more than 10000 nM on rat P2X7 and 2220 nM at P2X7 [1]. For the same compound, on P2X7 [2], the “PBMC 10 μM (% control)” value is 4.3 % control.

Take `COc1ccccc1-n1nnc2c1CCN(C(=O)c1cccc(C(F)(F)F)c1Cl)C2` [Example 125, (2-Chloro-3-(trifluoromethyl)phenyl)(1-(2-methoxyphenyl)-6,7-dihydro-1H-[1,2,3]triazolo[4,5-c]pyridin-5(4H)-yl)methanone]: the IC50 amounted to 1260 nM on rat P2X7 and 158 nM on P2X7 [1]. Further, on P2X7 [2], the “PBMC 1 μM (% control)” value amounted to 83.4 % control.

In the case of `COc1ccc(-n2nnc3c2CCN(C(=O)c2cccc(C(F)(F)F)c2Cl)C3C)nc1` (stereo not shown) [Example 145, (2-Chloro-3-(trifluoromethyl)phenyl)(1-(5-methoxypyridin-2-yl)-4-methyl-6,7-dihydro-1H-[1,2,3]triazolo[4,5-c]pyridin-5(4H)-yl)methanone], the IC50 on P2X7 [1] is 2310 nM. In addition, at P2X7 [2], the “PBMC 10 μM (% control)” value is listed as 15.2 % control.

Turning to `CC1CN(C(=O)c2cccc(Cl)c2Cl)Cc2nnn(-c3ccccc3)c21` (stereo not shown) [Example 244, (2,3-Dichlorophenyl)(7-methyl-1-phenyl-6,7-dihydro-1H-[1,2,3]triazolo[4,5-c]pyridin-5(4H)-yl)methanone], the IC50 at P2X7 [1] is 1140 nM. The “PBMC 10 μM (% control)” value on P2X7 [2] was −2.3 % control.

As for `CC1CN(C(=O)c2cccc(Cl)c2Cl)Cc2nnn(-c3ccc(F)cc3)c21` (stereo not shown) [Example 247, (2,3-Dichlorophenyl)(1-(4-fluorophenyl)-7-methyl-6,7-dihydro-1H-[1,2,3]triazolo[4,5-c]pyridin-5(4H)-yl)methanone], the concentration for half-maximal inhibition (IC50) at P2X7 [1] turned out to be 2330 nM. For the same compound, at P2X7 [2], the “PBMC 10 μM (% control)” value was −0.8 % control.

As to `CCCOc1cccnc1-n1nnc2c1CCN(C(=O)c1cccc(C(F)(F)F)c1Cl)C2C` (stereo not shown) [Example 293, (2-chloro-3-(trifluoromethyl)phenyl)(4-methyl-1-(3-propoxypyridin-2-yl)-6,7-dihydro-1H-[1,2,3]triazolo[4,5-c]pyridin-5(4H)-yl)methanone], on rat P2X7, the half-inhibitory concentration (IC50) came to 428 nM. For the same compound, at P2X7 [2], the “PBMC 10 μM (% control)” value is reported as −11.3 % control.

For the compound `Cc1ccc(-n2nnc3c2CCN(C(=O)c2cccc(C(F)(F)F)c2Cl)C3C)nc1` (stereo not shown) [Example 301, (2-chloro-3-(trifluoromethyl)phenyl)(4-methyl-1-(5-methylpyridin-2-yl)-6,7-dihydro-1H-[1,2,3]triazolo[4,5-c]pyridin-5(4H)-yl)methanone], on rat P2X7, the 50% inhibitory concentration (IC50) is 163 nM. Also, at P2X7 [2], the “PBMC 10 μM (% control)” value was −2.2 % control.

Consider `O=C(c1ccc(Cl)cc1Cl)N1CCc2c(ncn2-c2ccc(F)cn2)C1` [Example 313, (2,4-dichlorophenyl)(1-(5-fluoropyridin-2-yl)-6,7-dihydro-1H-imidazo[4,5-c]pyridin-5(4H)-yl)methanone], for which the IC50 on P2X7 [1] turned out to be 1110 nM. Besides, the “PBMC 10 μM (% control)” value at P2X7 [2] is recorded as −5.4 % control.

On to `CC1c2ncn(-c3ccc(F)cn3)c2C=CN1C(=O)c1cccc(C(F)(F)F)c1Cl` (stereo not shown) [Example 321, (2-chloro-3-(trifluoromethyl)phenyl)(1-(5-fluoropyridin-2-yl)-4-methyl-1H-imidazo[4,5-c]pyridin-5(4H)-yl)methanone], for which the 50% inhibitory concentration (IC50) at rat P2X7 turned out to be 589 nM. For the same compound, at P2X7 [2], the “PBMC 10 μM (% control)” value is recorded as 14.1 % control.
